# Organism: Rattus norvegicus
# Test: Open TG-GATES - Regimen: Single
# Assay type: toxicity, organism-based, Sprague-Dawley
# Parameters: regimen Single, gender Male, age 6 weeks
# Settings: in vivo, po, 2000 mg/kg, route gavage, dose level High; for APTT / Bas / Eos / Fbg / Hb / Ht / Lym / MCH / MCHC / MCV / Mono / Neu / PT / Plat / RBC / Ret / WBC: tissue Blood; for KIDNEY_L / KIDNEY_R / KIDNEY_TOTAL: tissue Kidney; for LIVER: tissue Liver; for A/G / ALP / ALT / AST / BUN / CRE / Ca / Cl / DBIL / GLC / IP / K / LDH / Na / PL / RALB / TBIL / TC / TG / TP / gamma-GTP: tissue Plasma
smiles,measurement,setting,value
CC(=O)[C@@]1(O)CC[C@H]2[C@@H]3C=C(Cl)C4=CC(=O)CC[C@]4(C)[C@H]3CC[C@@]21C [CHLORMADINONE],TERMINAL_BW,3 h,222.1 g
same,APTT,3 h,22.6 s
same,Bas,3 h,0%
same,Eos,3 h,1%
same,Fbg,3 h,306 mg/dL
same,Hb,3 h,12.8 g/dL
same,Ht,3 h,39.5%
same,Lym,3 h,74.8%
same,MCH,3 h,20 pg
same,MCHC,3 h,32.4%
same,MCV,3 h,61.8 fL
same,Mono,3 h,2%
same,Neu,3 h,21.6%
same,PT,3 h,15.2 s
same,Plat,3 h,107.8 x10_4/uL
same,RBC,3 h,639.8 x10_4/ul
same,Ret,3 h,7.8%
same,WBC,3 h,55.6 x10_2/uL
same,KIDNEY_L,3 h,0.9 g
same,KIDNEY_R,3 h,1 g
same,KIDNEY_TOTAL,3 h,1.9 g
same,LIVER,3 h,10.1 g
same,A/G,3 h,1.2
same,ALP,3 h,1401.2 IU/L
same,ALT,3 h,45.6 IU/L
same,AST,3 h,81 IU/L
same,BUN,3 h,13.8 mg/dL
same,CRE,3 h,0.2 mg/dL
same,Ca,3 h,10.9 mg/dL
same,Cl,3 h,105.2 meq/L
same,DBIL,3 h,0.004 mg/dL
same,GLC,3 h,172.2 mg/dL
same,IP,3 h,8.9 mg/dL
same,K,3 h,4.2 meq/L
same,LDH,3 h,143.6 IU/L
same,Na,3 h,141.2 meq/L
same,PL,3 h,138 mg/dL
same,RALB,3 h,3 g/dL
same,TBIL,3 h,0.032 mg/dL
same,TC,3 h,73.6 mg/dL
same,TG,3 h,50.8 mg/dL
same,TP,3 h,5.5 g/dL
same,gamma-GTP,3 h,1.4 IU/L
same,TERMINAL_BW,6 h,216.3 g
same,APTT,6 h,23.1 s
same,Bas,6 h,0%
same,Eos,6 h,0.6%
same,Fbg,6 h,313.4 mg/dL
same,Hb,6 h,13.5 g/dL
same,Ht,6 h,41.5%
same,Lym,6 h,74%
same,MCH,6 h,20.8 pg
same,MCHC,6 h,32.6%
same,MCV,6 h,63.7 fL
same,Mono,6 h,1.6%
same,Neu,6 h,23.4%
same,PT,6 h,15.1 s
same,Plat,6 h,124.8 x10_4/uL
same,RBC,6 h,651.8 x10_4/ul
same,Ret,6 h,7.9%
same,WBC,6 h,64 x10_2/uL
same,KIDNEY_L,6 h,1 g
same,KIDNEY_R,6 h,1 g
same,KIDNEY_TOTAL,6 h,2 g
same,LIVER,6 h,10.3 g
same,A/G,6 h,1.2
same,ALP,6 h,1302 IU/L
same,ALT,6 h,40.4 IU/L
same,AST,6 h,72.8 IU/L
same,BUN,6 h,13 mg/dL
same,CRE,6 h,0.1 mg/dL
same,Ca,6 h,10.8 mg/dL
same,Cl,6 h,106.2 meq/L
same,DBIL,6 h,0.004 mg/dL
same,GLC,6 h,177.4 mg/dL
same,IP,6 h,9.6 mg/dL
same,K,6 h,4.8 meq/L
same,LDH,6 h,157 IU/L
same,Na,6 h,140 meq/L
same,PL,6 h,138 mg/dL
same,RALB,6 h,3.2 g/dL
same,TBIL,6 h,0.034 mg/dL
same,TC,6 h,77.2 mg/dL
same,TG,6 h,39.8 mg/dL
same,TP,6 h,5.7 g/dL
same,gamma-GTP,6 h,1.6 IU/L
same,TERMINAL_BW,9 h,215.8 g
same,APTT,9 h,24.7 s
same,Bas,9 h,0%
same,Eos,9 h,0%
same,Fbg,9 h,319.6 mg/dL
same,Hb,9 h,13 g/dL
same,Ht,9 h,40.7%
same,Lym,9 h,71.2%
same,MCH,9 h,20.2 pg
same,MCHC,9 h,31.9%
same,MCV,9 h,63.4 fL
same,Mono,9 h,1%
same,Neu,9 h,27.2%
same,PT,9 h,15.7 s
same,Plat,9 h,119.5 x10_4/uL
same,RBC,9 h,642 x10_4/ul
same,Ret,9 h,7.9%
same,WBC,9 h,51.3 x10_2/uL
same,KIDNEY_L,9 h,0.9 g
same,KIDNEY_R,9 h,1 g
same,KIDNEY_TOTAL,9 h,1.9 g
same,LIVER,9 h,9.8 g
same,A/G,9 h,1.3
same,ALP,9 h,1584 IU/L
same,ALT,9 h,39.4 IU/L
same,AST,9 h,78 IU/L
same,BUN,9 h,12.8 mg/dL
same,CRE,9 h,0.1 mg/dL
same,Ca,9 h,10.6 mg/dL
same,Cl,9 h,106.6 meq/L
same,DBIL,9 h,0 mg/dL
same,GLC,9 h,178 mg/dL
same,IP,9 h,9.4 mg/dL
same,K,9 h,4.5 meq/L
same,LDH,9 h,142 IU/L
same,Na,9 h,141 meq/L
same,PL,9 h,142.4 mg/dL
same,RALB,9 h,3.2 g/dL
same,TBIL,9 h,0.028 mg/dL
same,TC,9 h,73 mg/dL
same,TG,9 h,67.2 mg/dL
same,TP,9 h,5.7 g/dL
same,gamma-GTP,9 h,1.4 IU/L
same,TERMINAL_BW,24 h,229.8 g
same,APTT,24 h,25.3 s
same,Bas,24 h,0%
same,Eos,24 h,1%
same,Fbg,24 h,341.6 mg/dL
same,Hb,24 h,14 g/dL
same,Ht,24 h,42.6%
same,Lym,24 h,77.6%
same,MCH,24 h,20.4 pg
same,MCHC,24 h,32.8%
same,MCV,24 h,62 fL
same,Mono,24 h,2.6%
same,Neu,24 h,17.8%
same,PT,24 h,15.3 s
same,Plat,24 h,106.3 x10_4/uL
same,RBC,24 h,687 x10_4/ul
same,Ret,24 h,7.3%
same,WBC,24 h,130.3 x10_2/uL
same,KIDNEY_L,24 h,1 g
same,KIDNEY_R,24 h,1 g
same,KIDNEY_TOTAL,24 h,2 g
same,LIVER,24 h,11.8 g
same,A/G,24 h,1.2
same,ALP,24 h,1835.4 IU/L
same,ALT,24 h,51.2 IU/L
same,AST,24 h,75 IU/L
same,BUN,24 h,15.8 mg/dL
same,CRE,24 h,0.2 mg/dL
same,Ca,24 h,11.3 mg/dL
same,Cl,24 h,105.4 meq/L
same,DBIL,24 h,0 mg/dL
same,GLC,24 h,192.4 mg/dL
same,IP,24 h,7.8 mg/dL
same,K,24 h,4.7 meq/L
same,LDH,24 h,201 IU/L
same,Na,24 h,140.6 meq/L
same,PL,24 h,185.2 mg/dL
same,RALB,24 h,3.2 g/dL
same,TBIL,24 h,0.004 mg/dL
same,TC,24 h,82 mg/dL
same,TG,24 h,222 mg/dL
same,TP,24 h,5.8 g/dL
same,gamma-GTP,24 h,1.4 IU/L

# — ChEMBL document CHEMBL3885861, “Open TG-GATES”
